Patent publication US20230233569A1 (Revolution Medicines, Inc., priority 2020, published 2023)
pIC50: −log10 of the molar value. Read-outs that look alike come from different tables or passages of the source.

Tests used:
Test in all cases: Ras-Raf disruption / FRET / MOA assay (BRAF RBD)
Assay type in all cases: biochemical
KRAS G12D = KRAS G12D (Homo sapiens, UniProt P01116+P62937, G12D); conditions: with Cyclophilin A
Outline: (§1)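 TR-FRET in 25 mM HEPES pH 7.3, 100 mM NaCl, 5 mM MgCl2, 0.1% BSA, 0.002% Tween20 with 25 μM Cyclophilin A, 12.5 nM His6-Ras-GMPPNP, 50 nM GST-BRAF RBD; compound 10-point 3-fold series from 30 μM. After 3 h at 25 °C, Eu anti-His/APC anti-GST added for 1.5 h; IC50 from ratio decrease versus DMSO.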

NRAS G12C = NRAS G12C (Homo sapiens, UniProt P01111+P62937, G12C)
Sequence of NRAS G12C (P01111 whole entry G12C): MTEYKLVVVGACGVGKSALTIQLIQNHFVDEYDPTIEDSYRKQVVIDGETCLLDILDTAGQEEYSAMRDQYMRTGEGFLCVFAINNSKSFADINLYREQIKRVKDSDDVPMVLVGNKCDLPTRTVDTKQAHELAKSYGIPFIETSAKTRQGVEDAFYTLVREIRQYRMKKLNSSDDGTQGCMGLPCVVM
Sequence of NRAS G12C (P62937 whole entry): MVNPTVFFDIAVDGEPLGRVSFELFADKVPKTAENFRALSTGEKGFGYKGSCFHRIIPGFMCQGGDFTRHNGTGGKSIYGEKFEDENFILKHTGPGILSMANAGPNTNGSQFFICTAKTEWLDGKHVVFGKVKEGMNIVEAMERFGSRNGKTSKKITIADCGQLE
Outline: as §1

KRAS WT = KRAS WT (Homo sapiens, UniProt P01116+P62937); conditions: with Cyclophilin A
Sequence of KRAS WT (P01116 1-169 isoform P01116-2 limits assumed): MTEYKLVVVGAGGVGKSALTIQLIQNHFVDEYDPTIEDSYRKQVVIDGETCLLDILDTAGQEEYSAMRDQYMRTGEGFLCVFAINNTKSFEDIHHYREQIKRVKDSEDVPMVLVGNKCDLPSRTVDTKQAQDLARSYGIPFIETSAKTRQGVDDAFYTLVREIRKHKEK
Sequence of KRAS WT (P62937 whole entry): as the sequence (P62937 whole entry) above
Outline: as §1

KRAS G13C = KRAS G13C (Homo sapiens, UniProt P01116+P62937, G13C); conditions: with Cyclophilin A
Sequence of KRAS G13C (P01116 1-169 isoform P01116-2 G13C limits assumed): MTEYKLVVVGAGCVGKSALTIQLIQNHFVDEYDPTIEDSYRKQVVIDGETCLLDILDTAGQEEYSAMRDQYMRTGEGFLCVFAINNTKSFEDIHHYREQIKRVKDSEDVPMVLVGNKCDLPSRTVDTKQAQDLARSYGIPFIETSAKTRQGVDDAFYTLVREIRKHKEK
Sequence of KRAS G13C (P62937 whole entry): as the sequence (P62937 whole entry) above
Outline: as §1

KRAS G12V = KRAS G12V (Homo sapiens, UniProt P01116+P62937, G12V); conditions: with Cyclophilin A
Sequence of KRAS G12V (P01116 1-169 isoform P01116-2 G12V limits assumed): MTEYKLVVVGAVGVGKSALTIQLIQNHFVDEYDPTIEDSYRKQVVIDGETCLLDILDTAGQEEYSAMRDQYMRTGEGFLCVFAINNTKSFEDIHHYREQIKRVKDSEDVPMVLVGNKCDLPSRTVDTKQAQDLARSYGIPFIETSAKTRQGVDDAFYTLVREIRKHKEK
Sequence of KRAS G12V (P62937 whole entry): as the sequence (P62937 whole entry) above
Outline: as §1

KRAS G13D = KRAS G13D (Homo sapiens, UniProt P01116+P62937, G13D); conditions: with Cyclophilin A
Sequence of KRAS G13D (P01116 1-169 isoform P01116-2 G13D limits assumed): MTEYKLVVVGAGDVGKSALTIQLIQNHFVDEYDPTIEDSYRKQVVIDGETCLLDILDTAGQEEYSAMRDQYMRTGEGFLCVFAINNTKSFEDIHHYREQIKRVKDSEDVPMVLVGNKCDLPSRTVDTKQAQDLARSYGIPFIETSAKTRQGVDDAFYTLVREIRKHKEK
Sequence of KRAS G13D (P62937 whole entry): as the sequence (P62937 whole entry) above
Outline: as §1

NRAS Q61R = NRAS Q61R (Homo sapiens, UniProt P01111+P62937, Q61R)
Sequence of NRAS Q61R (P01111 whole entry Q61R): as the sequence (P01111 whole entry G12C) above, with C12G, Q61R counted along it
Sequence of NRAS Q61R (P62937 whole entry): as the sequence (P62937 whole entry) above
Outline: as §1

NRAS Q61K = NRAS Q61K (Homo sapiens, UniProt P01111+P62937, Q61K)
Sequence of NRAS Q61K (P01111 whole entry Q61K): as the sequence (P01111 whole entry G12C) above, with C12G, Q61K counted along it
Sequence of NRAS Q61K (P62937 whole entry): as the sequence (P62937 whole entry) above
Outline: as §1

NRAS WT = NRAS WT (Homo sapiens, UniProt P01111+P62937)
Sequence of NRAS WT (P01111 whole entry): as the sequence (P01111 whole entry G12C) above, with C12G counted along it
Sequence of NRAS WT (P62937 whole entry): as the sequence (P62937 whole entry) above
Outline: as §1

KRAS G12S = KRAS G12S (Homo sapiens, UniProt P01116+P62937, G12S); conditions: with Cyclophilin A
Sequence of KRAS G12S (P01116 1-169 isoform P01116-2 G12S limits assumed): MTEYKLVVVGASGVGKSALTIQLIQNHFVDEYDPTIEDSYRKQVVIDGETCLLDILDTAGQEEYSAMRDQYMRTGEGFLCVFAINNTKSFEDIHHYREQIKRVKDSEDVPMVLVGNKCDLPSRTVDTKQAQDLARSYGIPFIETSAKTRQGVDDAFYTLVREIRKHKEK
Sequence of KRAS G12S (P62937 whole entry): as the sequence (P62937 whole entry) above
Outline: as §1

KRAS Q61H = KRAS Q61H (Homo sapiens, UniProt P01116+P62937, Q61H)
Sequence of KRAS Q61H (P01116 1-169 isoform P01116-2 Q61H limits assumed): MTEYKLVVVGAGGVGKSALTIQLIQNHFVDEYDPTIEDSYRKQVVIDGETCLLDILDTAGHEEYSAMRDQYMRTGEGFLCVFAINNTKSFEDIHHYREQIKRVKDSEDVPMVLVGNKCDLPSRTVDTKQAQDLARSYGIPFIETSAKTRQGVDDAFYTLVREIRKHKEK
Sequence of KRAS Q61H (P62937 whole entry): as the sequence (P62937 whole entry) above
Outline: as §1

KRAS G12C = KRAS G12C (Homo sapiens, UniProt P01116+P62937, G12C); conditions: with Cyclophilin A
Sequence of KRAS G12C (P01116 1-169 isoform P01116-2 G12C limits assumed): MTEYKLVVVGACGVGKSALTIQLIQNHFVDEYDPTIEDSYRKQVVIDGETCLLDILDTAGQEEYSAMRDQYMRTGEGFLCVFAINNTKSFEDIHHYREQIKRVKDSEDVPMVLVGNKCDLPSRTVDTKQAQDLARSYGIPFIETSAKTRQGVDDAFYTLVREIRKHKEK
Sequence of KRAS G12C (P62937 whole entry): as the sequence (P62937 whole entry) above
Outline: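 His6-K-Ras G12C-GMPPNP (12.5 nM), GST-BRAF RBD (50 nM) and tagless Cyclophilin A (25 μM) incubated 3 h at 25 °C with compound (10-point 3-fold series from 30 μM), pH 7.3 HEPES buffer. Anti-His Eu/anti-GST APC added for 1.5 h; decreased TR-FRET ratio vs DMSO gives IC50.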

[1] = Ras-Raf disruption, read-out: KRAS G12D FRET data IC50
[2] = NRAS G12C, read-out: NRAS G12C FRET data IC50
[3] = Ras-Raf disruption, read-out: KRAS WT FRET data IC50
[4] = Ras-Raf disruption, read-out: KRAS G13C FRET data IC50
[5] = Ras-Raf disruption, read-out: KRAS G12V FRET data IC50
[6] = Ras-Raf disruption, read-out: KRAS G13D FRET data IC50
[7] = NRAS Q61R, read-out: NRAS Q61R FRET data IC50
[8] = NRAS Q61K, read-out: NRAS Q61K FRET data IC50
[9] = NRAS WT, read-out: NRAS WT FRET data IC50
[10] = Ras-Raf disruption, read-out: KRAS G12S FRET data IC50
[11] = KRAS Q61H, read-out: KRAS Q61H FRET data IC50
[12] = Ras-Raf disruption, read-out: KRAS G12C FRET data IC50
[13] = KRAS G12D FRET data IC50, Ras-Raf disruption
[14] = NRAS G12C FRET data IC50, NRAS G12C
[15] = KRAS WT FRET data IC50, Ras-Raf disruption
[16] = KRAS G13C FRET data IC50, Ras-Raf disruption
[17] = KRAS G12V FRET data IC50, Ras-Raf disruption
[18] = KRAS G13D FRET data IC50, Ras-Raf disruption
[19] = KRAS G12S FRET data IC50, Ras-Raf disruption
[20] = KRAS G12C FRET data IC50, Ras-Raf disruption

Sequence of KRAS G12D (P01116 1-169 isoform P01116-2 G12D limits assumed): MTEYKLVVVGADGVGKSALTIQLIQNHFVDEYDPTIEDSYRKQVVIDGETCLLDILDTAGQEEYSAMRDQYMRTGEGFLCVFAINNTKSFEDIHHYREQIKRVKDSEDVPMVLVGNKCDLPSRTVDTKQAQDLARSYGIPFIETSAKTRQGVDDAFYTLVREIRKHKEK
Sequence of KRAS G12D (P62937 whole entry): as the sequence (P62937 whole entry) above

SMILES | pIC50 (KRAS G12D; [1]) | pIC50 (NRAS G12C; [2]) | pIC50 (KRAS WT; [3]) | pIC50 (KRAS G13C; [4]) | pIC50 (KRAS G12V; [5]) | pIC50 (KRAS G13D; [6]) | pIC50 (NRAS Q61R; [7]) | pIC50 (NRAS Q61K; [8]) | pIC50 (NRAS WT; [9]) | pIC50 (KRAS G12S; [10]) | pIC50 (KRAS Q61H; [11]) | pIC50 (KRAS G12C; [12]) | pIC50 (KRAS G12D; [13]) | pIC50 (NRAS G12C; [14]) | pIC50 (KRAS WT; [15]) | pIC50 (KRAS G13C; [16]) | pIC50 (KRAS G12V; [17]) | pIC50 (KRAS G13D; [18]) | pIC50 (NRAS Q61R) | pIC50 (NRAS Q61K) | other results
CCn1c(-c2cccnc2[C@H](C)OC)c2c3cc(ccc31)-c1cc(O)cc(c1)C[C@H](NC(=O)[C@@H](COC1CN(C(=O)[C@H]3CN3)C1)C(C)C)C(=O)N1CCC[C@H](N1)C(=O)OCC(C)(C)C2 [Example 312] | 5.00 to 6.00 | > 8.00 | 6.00 to 7.00 | 6.00 to 7.00 | 5.00 to 6.00 | 5.00 to 6.00 | 5.00 to 6.00 | 5.00 to 6.00 | 6.00 to 7.00 | 5.00 to 6.00 | 6.00 to 7.00 | > 8.00 |  |  |  |  |  |  |  |  | 
CCn1c(-c2cccnc2[C@H](C)OC)c2c3cc(ccc31)-c1cc(O)cc(c1)C[C@H](NC(=O)[C@H](C(C)C)N(C)C(=O)C13CC(CN1C(=O)[C@H]1CN1)C3)C(=O)N1CCC[C@H](N1)C(=O)OCC(C)(C)C2 [Example 164] |  |  |  |  |  |  |  |  |  |  |  |  | 6.00 to 7.00 | 6.00 to 7.00 | 6.00 to 7.00 | 6.00 to 7.00 | 6.00 to 7.00 | 6.00 to 7.00 | 5.00 to 6.00 | 5.00 to 6.00 | pIC50 (NRAS WT): 6.00 to 7.00; pIC50 (KRAS G12S; [19]): 6.00 to 7.00; pIC50 (KRAS Q61H): 7.00 to 8.00; pIC50 (KRAS G12C; [20]): 6.00 to 7.00
CCn1c(-c2cccnc2[C@H](C)OC)c2c3cc(ccc31)-c1cc(O)cc(c1)C[C@H](NC(=O)[C@H](C1CCCC1)N(C)C(=O)CN(C)C(=O)[C@H]1[C@@H](C3CC3)N1CCCOC)C(=O)N1CCC[C@H](N1)C(=O)OCC(C)(C)C2 (stereo partly drawn) [Example 317] |  |  |  |  |  |  |  |  |  |  |  |  | 6.00 to 7.00 | 7.00 to 8.00 | 7.00 to 8.00 | 7.00 to 8.00 | 7.00 to 8.00 | 6.00 to 7.00 | 6.00 to 7.00 | 6.00 to 7.00 | pIC50 (NRAS WT): 7.00 to 8.00; pIC50 (KRAS G12S; [19]): 7.00 to 8.00; pIC50 (KRAS Q61H): 7.00 to 8.00; pIC50 (KRAS G12C; [20]): 7.00 to 8.00
CCn1c(-c2cc(N3CCN(C)CC3)cnc2[C@H](C)OC)c2c3cc(ccc31)-c1cc(O)cc(c1)C[C@H](NC(=O)[C@H](C1CCCC1)N(C)C(=O)CN(C)C(=O)[C@@H]1N[C@@H]1C1CC1)C(=O)N1CCC[C@H](N1)C(=O)OCC(C)(C)C2 [Example 325] |  |  |  |  |  |  |  |  |  |  |  |  | > 8.00 | > 8.00 | > 8.00 | > 8.00 | > 8.00 | 7.00 to 8.00 | 7.00 to 8.00 | 7.00 to 8.00 | pIC50 (NRAS WT): > 8.00; pIC50 (KRAS G12S; [19]): > 8.00; pIC50 (KRAS Q61H): > 8.00; pIC50 (KRAS G12C; [20]): > 8.00
CCn1c(-c2cccnc2[C@H](C)OC)c2c3cc(ccc31)-c1csc(n1)C[C@H](NC(=O)[C@H](C(C)C)N(C)C(=O)N(C)CCN(C)C(=O)[C@H]1CN1)C(=O)N1CCC[C@H](N1)C(=O)OCC(C)(C)C2 (atropisomer, axis not shown) [Example 216] | 6.00 to 7.00 | 7.00 to 8.00 | 6.00 to 7.00 | 6.00 to 7.00 | 6.00 to 7.00 | 6.00 to 7.00 | 6.00 to 7.00 | 7.00 to 8.00 | 6.00 to 7.00 | 6.00 to 7.00 | 7.00 to 8.00 | 7.00 to 8.00 |  |  |  |  |  |  |  |  | 
CCn1c(-c2cccnc2[C@H](C)OC)c2c3cc(ccc31)-c1csc(n1)C[C@H](NC(=O)[C@H](C(C)C)N(C)C(=O)N(C)CCN(C)C(=O)[C@@H]1CN1)C(=O)N1CCC[C@H](N1)C(=O)OCC(C)(C)C2 (atropisomer, axis not shown) [Example 217] | 6.00 to 7.00 | 7.00 to 8.00 | 6.00 to 7.00 | 6.00 to 7.00 | 6.00 to 7.00 | 6.00 to 7.00 | 6.00 to 7.00 | 7.00 to 8.00 | 7.00 to 8.00 | 6.00 to 7.00 | 7.00 to 8.00 | 7.00 to 8.00 |  |  |  |  |  |  |  |  | 
